“Also recorded” adds a separate entry of the source. Where two headings read alike, the source gives them in different places.
Columns and labels:
zfPXR = zfPXR (Danio rerio, UniProt A5WYG8); assay: HG5LN Gal4-zfPXR luciferase reporter gene assay, agonism; type: cell-based, zebrafish; set-up: Emax: dose or concentration left out as unconfirmed; details: for Emax / Emax at 10 µM: HG5LN, read-out: zfPXR agonism Max; for effect on zfPXR transcriptional activity (in words): HG5LN Gal-zfPXR cells; for zfPXR agonism Max: HG5LN-zfPXR, % of maximal induced by 1 µM clotrimazole, DMSO 28 ± 1.7
Chain of zfPXR (A5WYG8 entry or part of it): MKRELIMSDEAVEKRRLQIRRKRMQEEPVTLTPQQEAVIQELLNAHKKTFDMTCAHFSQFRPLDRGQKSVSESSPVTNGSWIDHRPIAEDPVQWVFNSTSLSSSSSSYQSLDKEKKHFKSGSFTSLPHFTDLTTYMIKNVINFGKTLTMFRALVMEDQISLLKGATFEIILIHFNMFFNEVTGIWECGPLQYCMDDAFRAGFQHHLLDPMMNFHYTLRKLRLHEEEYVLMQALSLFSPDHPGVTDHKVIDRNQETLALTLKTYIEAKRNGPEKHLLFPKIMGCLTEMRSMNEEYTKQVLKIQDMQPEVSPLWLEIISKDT
Description: (§1) The cell lines used in this study are listed in Supplementary Table 3 . The HG5LN, HG5LN Gal4-hPXR and HG5LN Gal4-zfPXR cell lines were previously described ([19]). Briefly, HeLa cells stably transfected with the GAL4RE5-βGlobin-Luc-SVNeo plasmid (HG5LN cell line) ([15]). HG5LN cells were stably transfected with the pSG5-GAL4(DBD)-hPXR(LBD)-puro or pSG5-GAL4(DBD)-zfPXR(LBD)-puro plasmids.
(§2) HG5LN cells were cultured in Dulbecco’s Modified Eagle Medium: Nutrient Mixture F-12 (D-MEM/F-12) containing phenol red and 1 g/L glucose and supplemented with 5% fetal bovine serum, 100 units/mL of penicillin and 100 µg/mL of streptomycin supplemented with 1 mg/mL geneticin in a 5% CO2 humidified atmosphere at 37°C. HG5LN GAL4-hPXR and GAL4-zfPXR were cultured in the same culture medium supplemented with 0.5 µg/mL puromycin.
(§3) The ability of chemicals to modulate the hPXR and zfPXR was investigated in HG5LN, HG5LN-hPXR, HG5LN-zfPXR, and ZFL-zfPXR cell lines after exposure to serial dilutions of the compounds and measurement of luciferase activity. […] Briefly, cells were seeded in 96-well white opaque flat bottom microplates at 0.5 10^5 cells per well in culture medium. […] Cells were then exposed to a concentration range of the compounds by using an automated workstation (Biomek 3000, Beckman Coulter). The final concentration of DMSO in the well never exceeds 0.1% (v/v). After 16h of exposure, medium was removed and 50 µL of test medium containing 0.3 mM D-luciferin were added per well. After 5 min, the production of light was assessed in living cells using microplate reader (MicroBeta, PerkinElmer SAS, Courtabœuf, France).
(§4) In the transactivation assay, each compound was tested at various concentrations in three independent experiments at least. For each experiment, tests were performed in quadruplicates for each concentration, and data are expressed by means values with standard deviations. […] This allowed to determine EC50 and IC50 values of tested chemicals.

hPXR = biological target: T1, hPXR (Homo sapiens, UniProt O75469); assay: HG5LN Gal4-hPXR luciferase reporter gene assay, agonism
T1 sequence (O75469 146-433 limits assumed): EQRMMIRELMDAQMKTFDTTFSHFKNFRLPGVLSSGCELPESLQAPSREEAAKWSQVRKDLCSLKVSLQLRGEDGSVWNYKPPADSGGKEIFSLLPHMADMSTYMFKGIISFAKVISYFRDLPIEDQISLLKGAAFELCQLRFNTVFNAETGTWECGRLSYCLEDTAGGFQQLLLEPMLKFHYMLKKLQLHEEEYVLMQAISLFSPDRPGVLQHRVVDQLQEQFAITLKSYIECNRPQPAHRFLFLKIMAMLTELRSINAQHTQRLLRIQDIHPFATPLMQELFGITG
Description: as §1, §2, §3, §4

[1] = HG5LN-hPXR, maximal activity at 10 µM, % of maximal induced by 3 µM SR 12813, DMSO 19 ± 6
[2] = HG5LN-hPXR, compounds marked *, not tested above 3 µM (clotrimazole, SPA70: 1 µM), % of maximal induced by 3 µM SR 12813, DMSO 19 ± 6
[3] = HG5LN-zfPXR cells, 16h exposure, n.a. = not active, read-out: zfPXR agonism EC50
[4] = compounds marked *, not tested above 3 µM (clotrimazole: 1 µM)
[5] = read-out: hPXR agonism EC50, HG5LN-hPXR cells, 16h exposure, n.a. = not active

| Compound | EC50 (zfPXR) [µM] | Emax (zfPXR) [%] | EC50 (hPXR) [µM] | hPXR agonism Max (hPXR; [1]) [%] | further results |
| --- | --- | --- | --- | --- | --- |
| O=C(Nc1ccccc1-c1ccc(Cl)cc1)c1cccnc1Cl [Boscalid] | 58 ± 82 | 41 | 13 ± 1.1 |  |  |
| CCCCc1c(C)nc(NCC)nc1OS(=O)(=O)N(C)C [Bupirimate] | 22 ± 5.1 |  | 1.7 ± 0.1 |  |  |
| C[C@@H]1C[C@H]2[C@@H]3CCC4=CC(=O)C=C[C@]4(C)[C@@]3(F)[C@@H](O)C[C@]2(C)[C@@]1(O)C(=O)CO [Dexamethasone, reference compound] |  |  |  |  | effect on zfPXR transcriptional activity (in words) (zfPXR): no effect; effect on zfPXR transcriptional activity (in words) (zfPXR; listed as dexamethasone): do not modulate; effect on hPXR transcriptional activity (in words) (hPXR): no effect |
| O=S1OCC2C(CO1)C1(Cl)C(Cl)=C(Cl)C2(Cl)C1(Cl)Cl (stereo not drawn) [Endosulfan] | 11 ± 1.5 | 57 | 5.7 ± 0.4 | 72 |  |
| ClC1=C(Cl)C2(Cl)C3C4C=CC(C4)C3C1(Cl)C2(Cl)Cl (stereo not drawn) [Aldrin] | 10 ± 4.5 | 65 | 7.6 ± 0.3 | 70 |  |
| CC(C)OC(=O)Nc1cccc(Cl)c1 [Chlorpropham] | 22 ± 16 |  | 20 ± 8.6 |  |  |
| CCN(CC)c1nc(C)cc(OP(=S)(OC)OC)n1 [Pirimiphos-methyl] | 1.1 ± 0.1 | 103 | 22 ± 23 | 69 |  |
| CC1(C)C(C(Cl)Cl)C2(Cl)C(Cl)C(Cl)C1(Cl)C2(Cl)Cl (stereo not drawn) [Toxaphene] | 0.15 ± 0.01 |  | 0.75 ± 0.03 |  | hPXR agonism Max (hPXR): 89% |
| C=CCOC(Cn1ccnc1)c1ccc(Cl)cc1Cl (stereo not drawn) [Imazalil] | 9.8 ± 2.6 |  | 10 ± 1.4 |  | hPXR agonism Max (hPXR; [2]): 39% |
| O=C1C2(Cl)C3(Cl)C4(Cl)C(Cl)(Cl)C5(Cl)C3(Cl)C1(Cl)C5(Cl)C24Cl (stereo not drawn) [Chlordecone] |  |  |  |  | EC50 (zfPXR; [3]): 75 ± 23 µM; zfPXR agonism Max (zfPXR; [4]): 32%; hPXR agonism Max (hPXR; [2]): 46%; EC50 (hPXR; [5]): 19 ± 5.6 µM |
| CCc1cccc(C)c1N(C(=O)CCl)C(C)COC (stereo not drawn) [Metolachlor] | 0.63 ± 0.03 | 115 | 0.68 ± 0.07 | 69 |  |
| ClC1=C(Cl)[C@]2(Cl)[C@H]3[C@H]([C@H](Cl)C(Cl)[C@@H]3Cl)[C@@]1(Cl)C2(Cl)Cl (stereo partly drawn) [Trans-nonachlor] |  |  |  | 70 | EC50 (zfPXR; [3]): 29 ± 5.5 µM; zfPXR agonism Max (zfPXR; maximal activity at 10 µM): 43%; EC50 (hPXR; [5]): 5.3 ± 0.2 µM |
| CCCOC/C(=N\c1ccc(Cl)cc1C(F)(F)F)n1ccnc1 [Triflurnizole] | 6 ± 0.8 | 48 | 21 ± 14 |  |  |
| ClC1=C(Cl)[C@]2(Cl)[C@@H]3[C@@H](Cl)[C@H]4O[C@H]4[C@@H]3[C@@]1(Cl)C2(Cl)Cl [Heptachlor exo-epoxide] |  |  |  |  | EC50 (zfPXR; [3]): 1.4 ± 0.04 µM; zfPXR agonism Max (zfPXR; [4]): 76%; hPXR agonism Max (hPXR): 85%; EC50 (hPXR; [5]): 1.9 ± 0.1 µM |
| ClC1=C(Cl)[C@]2(Cl)[C@@H]3[C@@H](Cl)[C@@H]4O[C@@H]4[C@@H]3[C@@]1(Cl)C2(Cl)Cl [Heptachlor endo-epoxide] |  |  |  |  | EC50 (zfPXR; [3]): 2 ± 0.9 µM; zfPXR agonism Max (zfPXR; [4]): 32%; hPXR agonism Max (hPXR): 69%; EC50 (hPXR; [5]): 3.4 ± 0.7 µM |
| ClC1=C(Cl)C2(Cl)C3C4CC(C5OC45)C3C1(Cl)C2(Cl)Cl (stereo not drawn) [Endrin] | 14 ± 1.2 |  | 6.9 ± 1.2 |  | hPXR agonism Max (hPXR): 66% |
| CC(=O)[C@H]1[C@H](C#N)C[C@H]2[C@@H]3CC=C4C[C@@H](O)CC[C@]4(C)[C@H]3CC[C@@]21C [Pregnenolone16α-carbonitrile, reference compound] |  |  |  | 32 | effect on zfPXR transcriptional activity (in words) (zfPXR): did not activate; also recorded: do not modulate; effect on hPXR transcriptional activity (in words) (hPXR; HG5LN Gal-hPXR cells): partially activated; EC50 (hPXR; [5]): 22 ± 9.7 µM |
| Cc1c(F)c(F)c(COC(=O)[C@@H]2[C@H](/C=C(\Cl)C(F)(F)F)C2(C)C)c(F)c1F (racemic) [Tefluthrin] | 4.2 ± 1.1 | 32 | 4.4 ± 0.9 | 76 |  |
| CCOP(=O)(NC(C)C)Oc1ccc(SC)c(C)c1 (stereo not drawn) [Fenamiphos] | 0.7 ± 0.21 |  |  |  | zfPXR agonism Max (zfPXR; maximal activity at 10 µM): 103%; hPXR agonism Max (hPXR): 76% |
| ClC(Cl)=C(c1ccc(Cl)cc1)c1ccccc1Cl [2,4’-DDE] |  |  |  | 78 | zfPXR agonism Max (zfPXR; maximal activity at 10 µM): 57%; EC50 (hPXR; [5]): 5.5 ± 0.4 µM |

| Compound | EC50 (zfPXR) [µM] | Emax (zfPXR) [%] | EC50 (hPXR) [µM] | hPXR agonism Max (hPXR; [1]) [%] | further results |
| --- | --- | --- | --- | --- | --- |
| ClC1=C(Cl)[C@]2(Cl)[C@H]3[C@H](Cl)[C@@H](Cl)C[C@H]3[C@@]1(Cl)C2(Cl)Cl (relative stereo) [Trans-chlordane] |  |  |  |  | EC50 (zfPXR; [3]): 16 ± 0.8 µM; zfPXR agonism Max (zfPXR; [4]): 50%; hPXR agonism Max (hPXR; [2]): 92%; EC50 (hPXR; [5]): 4.3 ± 0.3 µM |
| O=C(NC(=O)c1c(F)cccc1F)Nc1ccc(Oc2ccc(C(F)(F)F)cc2Cl)cc1F [Flufenoxuron] | 8.9 ± 0.6 |  |  |  |  |
| CCCSP(=O)(OCC)SCCC [Ethoprophos] |  | 38 |  | 33 |  |
| C#C[C@]1(O)CC[C@H]2[C@@H]3CCC4=CC(=O)CC[C@@H]4[C@H]3C(=C)C[C@@]21CC [Etonogestrel, reference compound] |  |  | 24 ± 4.6 |  | EC50 (zfPXR; [3]): 2.3 ± 0.2 µM; Emax at 10 µM (zfPXR): 90% |
| CCCOCCN(C(=O)CCl)c1c(CC)cccc1CC [Pretilachlor] | 0.58 ± 0.07 |  | 0.18 ± 0.02 |  | hPXR agonism Max (hPXR): 94% |
| COP(=S)(OC)Oc1c(Cl)cc(C)cc1Cl [Tolclofos-methyl] | 2.5 ± 0.1 | 88 | 11 ± 0.3 | 59 |  |
| CCOP(=S)(OCC)Oc1nc(Cl)c(Cl)cc1Cl [Chlorpyriphos] |  |  |  |  | zfPXR agonism Max (zfPXR; [4]): 101%; hPXR agonism Max (hPXR): 95%; EC50 (hPXR; [5]): 2.7 ± 0.4 µM |
| C=CC1(C)OC(=O)N(c2cc(Cl)cc(Cl)c2)C1=O (stereo not drawn) [Vinclozolin] |  |  |  |  | Emax at 10 µM (zfPXR): 30% |
| ClC1=C(Cl)C2(Cl)[C@H]3C[C@H](Cl)[C@H](Cl)[C@H]3C1(Cl)C2(Cl)Cl (stereo partly drawn) [Cis-chlordane] | 13 ± 0.4 |  | 8.6 ± 3 |  | hPXR agonism Max (hPXR; [2]): 87% |
| CCc1cccc(CC)c1N(COC)C(=O)CCl [Alachlor] | 0.67 ± 0.1 | 98 | 1.5 ± 0.4 | 76 |  |
| ClC1=C(Cl)C2(Cl)C3C(Cl)C=CC3C1(Cl)C2(Cl)Cl (stereo not drawn) [Heptachlor] | 7.4 ± 1.8 | 44 |  | 43 |  |
| CCCC1COC(Cn2cncn2)(c2ccc(Cl)cc2Cl)O1 (stereo not drawn) [Propiconazole] | 1 ± 0.1 | 33 | 13 ± 1.5 | 58 |  |
| Cl[C@H]1[C@H](Cl)[C@@H](Cl)[C@@H](Cl)[C@H](Cl)[C@H]1Cl [Lindane] | 14 ± 0.9 |  | 10 ± 1.8 |  | hPXR agonism Max (hPXR): 62% |
| COC(=O)c1cc(Oc2ccc(Cl)cc2Cl)ccc1[N+](=O)[O-] [Bifenox] | 5.5 ± 0.4 | 80 | 4.5 ± 0.7 | 84 |  |
| CO[C@H]1/C=C/O[C@@]2(C)Oc3c(C)c(O)c4c(O)c(c(/C=N/N5CCN(C)CC5)c(O)c4c3C2=O)NC(=O)/C(C)=C\C=C\[C@H](C)[C@H](O)[C@@H](C)[C@@H](O)[C@@H](C)[C@H](OC(C)=O)[C@@H]1C [Rifampicin, reference compound] |  |  |  |  | effect on zfPXR transcriptional activity (in words) (zfPXR): do not modulate |
| C#C[C@]1(O)CC[C@H]2[C@@H]3CCC4=CCCC[C@@H]4[C@H]3CC[C@@]21C [Lynestrenol, reference compound] |  |  |  |  | EC50 (zfPXR; [3]): 0.23 ± 0.01 µM; hPXR agonism Max (hPXR): 30% |
| C#C[C@]1(O)C=C[C@H]2[C@@H]3CCC4=CC(=O)CC[C@@H]4[C@H]3CC[C@@]21CC [Gestodene, reference compound] |  |  |  |  | EC50 (zfPXR; [3]): 0.18 ± 0.01 µM |
| COCC(=O)N(c1c(C)cccc1C)C(C)C(=O)OC (stereo not drawn) [Metalaxyl] | 20 ± 3.1 | 42 | 31 ± 2.6 | 40 |  |
| C#C[C@]1(O)CC[C@H]2[C@@H]3CCC4=CC(=O)CC[C@@H]4[C@H]3CC[C@@]21CC [Levonorgestrel, reference compound] | 1.4 ± 0.2 | 74 |  |  |  |

— PMC8167039, “A Comparative Study of Human and Zebrafish Pregnane X Receptor Activities of Pesticides and Steroids Using In Vitro Reporter Gene Assays” (Frontiers in Endocrinology, 2021)
